25 molecules from PMC7897990, “TriTOX: A novel Trichomonas vaginalis assay platform for high-throughput screening of compound libraries” (International Journal for Parasitology: Drugs and Drug …, 2021) can be followed below.

Read-outs that look alike come from different tables or passages of the source.

Series [1] concerns nontumorigenic neonatal foreskin fibroblast (NFF) cell line.
In series [2] the test system is Trichomonas vaginalis G3 trophozoites.
The mark [3] stands for this setting: replicate 1, parasite screen at 1 µg/mL.
[4] abbreviates: replicate 2, parasite screen at 1 µg/mL.
The mark [5] stands for this setting: NFF fibroblasts, single concentration 5 µg/mL.
Setting [6] is: HTS replicate 1, parasite screen 1 µg/mL.
Setting [7] is: HTS replicate 2, parasite screen 1 µg/mL.
Setting [8] is: NFF_NS1 screen 5 µg/mL, single concentration.
Where [9] appears, read: HTS single concentration, parasite screen 1 µg/mL, replicate 1.
[10] abbreviates: HTS single concentration, parasite screen 1 µg/mL, replicate 2.
The mark [11] stands for this setting: NFF_NS1 screen at 5 µg/mL, NFF cells.
[12] abbreviates: parasite screen at 1 µg/mL, replicate 1.
The mark [13] stands for this setting: parasite screen at 1 µg/mL, replicate 2.
The mark [14] stands for this setting: NFF fibroblast screen at 5 µg/mL, A = active, I = inactive.
[15] abbreviates: HTS, parasite screen at 1 µg/mL, replicate 1.
The mark [16] stands for this setting: HTS, parasite screen at 1 µg/mL, replicate 2.
[17] abbreviates: HTS, parasite screen at 1 µg/mL, replicate 1, raw absorbance.
[18] abbreviates: HTS, parasite screen at 1 µg/mL, replicate 2, raw absorbance.

Take `CCC(C=CC1OC(=O)C=CC1C)=CC(C)CC=CC(C)=CC(C)C(=O)C(C)C(O)C(C)CC(C)=CC(=O)O` (stereo not shown) [BIA-L1046]: in series [1] (NFF cells, screen at 5 µg/mL), the NFF_Activity entry is “A (active (A) compounds having >25% inhibitory activity)”. In addition, the T.vaginalis_%inb_Rep1 in series [2] (setting [3]) is 99.95%. For the same molecule, the T.vaginalis_%inb_Rep2 in series [2] (setting [4]) is 96.86%.

With Orfamide A, the NFF_Activity entry in series [1] (setting [5]) was “I (otherwise these were reported as inactive (I))”. Also, the T.vaginalis_%inb_Rep1 in series [2] (setting [6]) was 9.99%. Further, the T.vaginalis_%inb_Rep2 in series [2] (setting [7]) is 10.90%.

Consider `CC(=O)N[C@H]1CCOC1=O` [BIA-A1493], for which the NFF_Activity result in series [1] (setting [8]) is “I (otherwise these were reported as inactive (I))”. The molecule further returned a T.vaginalis_%inb_Rep1 in series [2] (setting [9]) of 15.89%. In series [2] (setting [10]), the T.vaginalis_%inb_Rep2 was found to be 26.61%.

Turning to `CCCCCCCCCCCCCCCc1cc(O)cc(O)c1` [BIA-A1689], the NFF_Activity result in series [1] (setting [8]) is “I (otherwise these were reported as inactive (I))”. In series [2] (setting [9]), this molecule showed a T.vaginalis_%inb_Rep1 of 16.26%. This molecule had a T.vaginalis_%inb_Rep2 in series [2] (setting [10]) of 11.86%.

`O=C1NCc2nc3ccccc3c(=O)n2-c2ccccc21` [BIA-S1678]: in series [1] (setting [11]), the NFF_Activity result was “I (otherwise these were reported as inactive (I))”. In series [2] (setting [12]), the T.vaginalis_%inb_Rep1 turned out to be 10.85%. In addition, the T.vaginalis_%inb_Rep2 in series [2] (setting [13]) was 12.61%.

In the case of `COC1=C(OC)C(=O)C(C)=C(C)C1=O` [BIA-A1654], in series [1] (setting [8]), the NFF_Activity entry is recorded as “A (active (A) compounds having >25% inhibitory activity)”. In series [2] (setting [9]), the T.vaginalis_%inb_Rep1 is 13.09%. In series [2] (setting [10]), this molecule came in with a T.vaginalis_%inb_Rep2 of 16.34%.

Regarding `CC1CCCC(O)CCCCCc2cc(O)cc(O)c2C(=O)O1` (stereo not drawn) [Zearalanol, beta-], the NFF_Activity result in series [1] (setting [14]) is “I (otherwise these were reported as inactive (I))”. The molecule further came in with a T.vaginalis_%inb_Rep1 in series [2] (setting [15]) of 9.65%. The molecule further returned a T.vaginalis_%inb_Rep2 in series [2] (setting [16]) of 13.83%.

With `CCC(=O)Nc1c2sscc-2n(C)c1=O` [BIA-A1120], the NFF_Activity result in series [1] (setting [8]) is reported as “A (active (A) compounds having >25% inhibitory activity)”. In series [2] (setting [9]), this molecule showed a T.vaginalis_%inb_Rep1 of 100.00%. In addition, the T.vaginalis_%inb_Rep2 in series [2] (setting [10]) stood at 82.07%.

For `CC(=O)NCCc1c[nH]c2ccccc12` [BIA-A1732], the NFF_Activity result in series [1] (setting [8]) was “I (otherwise these were reported as inactive (I))”. Moreover, the T.vaginalis_%inb_Rep1 in series [2] (setting [9]) stood at 14.43%. In series [2] (setting [10]), this molecule gave a T.vaginalis_%inb_Rep2 of 33.62%.

`C[C@@H]1CCC[C@H](O)CCC/C=C/c2cc(O)cc(O)c2C(=O)O1` [Zearalenol, beta-]: the NFF_Activity result in series [1] (setting [14]) was “I (otherwise these were reported as inactive (I))”. This molecule gave a T.vaginalis_%inb_Rep1 in series [2] (setting [15]) of 9.54%. This molecule showed a T.vaginalis_%inb_Rep2 in series [2] (setting [16]) of 15.05%.

For Fulvic acid, the NFF_Activity result in series [1] (NFF_NS1 screen at 5 µg/mL) was “I (otherwise these were reported as inactive (I))”. The T.vaginalis_%inb_Rep1 in series [2] (setting [15]) stood at 12.65%. Moreover, in series [2] (setting [17]), the T.vaginalis_Absorbance_Rep1 was found to be 0.944. Also, the T.vaginalis_%inb_Rep2 in series [2] (setting [16]) was 4.34%. The same molecule showed a T.vaginalis_Absorbance_Rep2 in series [2] (setting [18]) of 0.68.

In the case of `CC(=O)NCCc1c[nH]c2ccc(O)cc12` [BIA-A1738], the NFF_Activity entry in series [1] (setting [8]) was “I (otherwise these were reported as inactive (I))”. The molecule further had a T.vaginalis_%inb_Rep1 in series [2] (setting [9]) of 13.41%. The molecule also registered a T.vaginalis_%inb_Rep2 in series [2] (setting [10]) of 15.18%.

Diacetoxyscirpenol: the NFF_Activity result in series [1] is “I (key: active (A) compounds having >25% inhibitory activity; otherwise these were reported as inactive (I))”. For the same molecule, in series [2], the T.vaginalis_%inb_Rep1 stood at 8.29%, the T.vaginalis_%inb_Rep2 was determined as 9.08%, the T.vaginalis_Absorbance_Rep1 was 0.923 and the T.vaginalis_Absorbance_Rep2 is 0.786.

In the case of `CCCCCCCCCCCCCC(=O)N[C@H]1CCOC1=O` [BIA-T1499], the NFF_Activity entry in series [1] (setting [11]) is “I (otherwise these were reported as inactive (I))”. This molecule also gave a T.vaginalis_%inb_Rep1 in series [2] (setting [12]) of 6.40%. The molecule further gave a T.vaginalis_%inb_Rep2 in series [2] (setting [13]) of 13.16%.

In the case of `CCCCCc1c2c(cc(O)c1C(=O)O)OC(=O)c1c(cc(OC)cc1C(=O)CCCC)O2` [BIA-L1671], the NFF_Activity entry in series [1] (NFF cells, screen at 5 µg/mL) is “I (otherwise these were reported as inactive (I))”. For the same molecule, in series [2] (setting [3]), the T.vaginalis_%inb_Rep1 stood at 10.45%. Further, in series [2] (setting [4]), the T.vaginalis_%inb_Rep2 was 14.37%.

Take `CO[C@@H]1[C@@H](O)[C@@H](O)[C@@H](Oc2ccc3c(O)c(NC(=O)c4ccc(O)c(CC=C(C)C)c4)c(=O)oc3c2C)OC1(C)C` [Descarbamylnovobiocin]: the NFF_Activity entry in series [1] (NFF_NS1 screen at 5 µg/mL) is “I (otherwise these were reported as inactive (I))”. The T.vaginalis_%inb_Rep1 in series [2] (setting [15]) is 9.75%. This molecule also had a T.vaginalis_Absorbance_Rep1 in series [2] (setting [17]) of 0.89. This molecule also came in with a T.vaginalis_%inb_Rep2 in series [2] (setting [16]) of 9.69%. Besides, in series [2] (setting [18]), the T.vaginalis_Absorbance_Rep2 amounted to 0.754.

For the molecule `CN(C)C1C(=O)C(C(N)=O)=C(O)C2(O)C(=O)CC(C3(C)OC(=O)c4c(O)ccc(Cl)c43)CC12` (stereo not shown) [BIA-I1656], the NFF_Activity result in series [1] (NFF cells, screen at 5 µg/mL) is “I (otherwise these were reported as inactive (I))”. This molecule also gave a T.vaginalis_%inb_Rep1 in series [2] (setting [3]) of 15.87%. In series [2] (setting [4]), the T.vaginalis_%inb_Rep2 was 12.89%.

As to `CSC[S@@+]([O-])CC(CO)NC(=O)/C=C/c1c(C)[nH]c(=O)[nH]c1=O` (stereo partly shown) [BIA-S1798], in series [1] (setting [11]), the NFF_Activity entry is reported as “A (active (A) compounds having >25% inhibitory activity)”. The molecule also yielded a T.vaginalis_%inb_Rep1 in series [2] (setting [12]) of 68.56%. The molecule also came in with a T.vaginalis_%inb_Rep2 in series [2] (setting [13]) of 88.33%.

`CC[C@H]1C[C@@H]2CC[C@@H](O2)[C@@H](C)C(=O)O[C@H](CC)C[C@H]2CC[C@H](O2)[C@H](C)C(=O)O[C@@H](C)C[C@@H]2CC[C@@H](O2)[C@@H](C)C(=O)O[C@H](CC)C[C@H]2CC[C@H](O2)[C@H](C)C(=O)O1` [Trinactin]: the NFF_Activity entry in series [1] (setting [14]) was “I (otherwise these were reported as inactive (I))”. Also, in series [2] (setting [15]), the T.vaginalis_%inb_Rep1 was 11.27%. This molecule had a T.vaginalis_%inb_Rep2 in series [2] (setting [16]) of 13.47%.

Dihydrocyclosporin A: in series [1] (NFF_NS1 screen at 5 µg/mL), the NFF_Activity result is “I (otherwise these were reported as inactive (I))”. This molecule also displayed a T.vaginalis_%inb_Rep1 in series [2] (setting [15]) of 11.52%. This molecule also registered a T.vaginalis_Absorbance_Rep1 in series [2] (setting [17]) of 0.923. The molecule further gave a T.vaginalis_%inb_Rep2 in series [2] (setting [16]) of 13.52%. The T.vaginalis_Absorbance_Rep2 in series [2] (setting [18]) is 0.807.

For the molecule `CC=CC=CC1OC(O)(C(C)C(O)C(C)C2OC(=O)C(OC)=CC(C)=CC(C)C(O)C(C)CC(C)=CC=CC2OC)CC(OC2CC(O)C(O)C(C)O2)C1C` (stereo not shown) [PC-766B], the NFF_Activity entry in series [1] (setting [5]) is listed as “A (active (A) compounds having >25% inhibitory activity)”. Besides, in series [2] (setting [6]), the T.vaginalis_%inb_Rep1 turned out to be 72.87%. Moreover, in series [2] (setting [7]), the T.vaginalis_%inb_Rep2 came to 76.65%.

Take `CC1=CC(O/C=C2\CCOC2=O)OC1=O` (stereo not shown) [GR5]: the NFF_Activity entry in series [1] (NFF_NS1 screen at 5 µg/mL) is “I (otherwise these were reported as inactive (I))”. In series [2] (setting [15]), the T.vaginalis_%inb_Rep1 is on record as 9.60%. The T.vaginalis_Absorbance_Rep1 in series [2] (setting [17]) was 0.948. Further, the T.vaginalis_%inb_Rep2 in series [2] (setting [16]) is listed as 13.10%. This molecule displayed a T.vaginalis_Absorbance_Rep2 in series [2] (setting [18]) of 0.852.

As for `COc1cc2c(c3oc(=O)c4c(c13)CCOC4=O)[C@@H]1CCO[C@@H]1O2` [BIA-A1235], the NFF_Activity entry in series [1] (setting [8]) was “I (otherwise these were reported as inactive (I))”. In series [2] (setting [9]), this molecule registered a T.vaginalis_%inb_Rep1 of 12.33%. Moreover, the T.vaginalis_%inb_Rep2 in series [2] (setting [10]) is 13.81%.

On to `CC[C@H](C)[C@@H]1NC(=O)C(C(C)=O)=C1O` [BIA-T1277], for which the NFF_Activity entry in series [1] (setting [11]) is “I (otherwise these were reported as inactive (I))”. In series [2] (setting [12]), this molecule registered a T.vaginalis_%inb_Rep1 of 8.60%. The molecule further came in with a T.vaginalis_%inb_Rep2 in series [2] (setting [13]) of 14.81%.

Turning to `CC1=C[C@H]2C(=O)O[C@H]3C[C@@H](C/C=C(\C)C[C@@H](C)/C=C/C=C4\CO[C@H]([C@@H]1O)[C@@]42O)O[C@]1(C3)C[C@H](O)[C@H](C)[C@@H](/C(C)=C/C(C)C)O1` [Nemadectin], the NFF_Activity entry in series [1] (setting [5]) is “I (otherwise these were reported as inactive (I))”. The same molecule came in with a T.vaginalis_%inb_Rep1 in series [2] (setting [6]) of 11.56%. In series [2] (setting [7]), this molecule gave a T.vaginalis_%inb_Rep2 of 13.53%.
